The source of these data is PMC6359039, “Pharmacokinetics, Tissue Distribution, Plasma Protein Binding Studies of 10-Dehydroxyl-12-Demethoxy-Conophylline, a Novel Anti-Tumor Candidate, in Rats” (Molecules, 2019).

Series [1] in a line: Plasma protein binding by equilibrium dialysis, rat plasma. The class given is in vitro ADME. Conditions: Sprague Dawley. On the procedure:
Protein binding was determined in vitro by equilibrium dialysis of plasma of rats or human serum albumin. Blank dialysate, internal dialysate, and external dialysate were prepared separately. The internal dialysate was prepared by taking 0.4 mL of blank plasma and adding 100 μL of the 10-dehydroxyl-12-demethoxy-conophylline series standard solution to prepare the equivalent of 10-dehydroxyl-12-demethoxy-conophylline plasma concentrations of 0.078, 0.156, 0.312, 0.625, 1.250, 2.500, 5.000, and 20.000 μg/mL simulating biological samples. The external dialysate was prepared by taking 0.4 mL of blank dialysate and adding 100 μL of the 10-dehydroxyl-12-demethoxy-conophylline series standard solution to prepare the equivalent of 10-dehydroxyl-12-demethoxyconophylline plasma concentrations of […] simulating dialysate samples. The protein binding rate of 10-dehydroxyl-12-demethoxy-conophylline in plasma was measured using the equilibrium dialysis method in this experiment. The concentration of unbound compound (B) and bound compound to protein (A) were calculated as follows:F = (A − B)/A,(1) where F is the bounded fraction, A is the compound concentration in the plasma compartment, and B is the concentration of the compound in the phosphate buffer compartment.
(In equilibrium dialysis only unbound substance equilibrates across the membrane.)

Series [2] is described as follows: Tissue distribution in rats after a single i.v. dose. It counts as in vivo, Sprague Dawley rats. Conditions: rat, single i.v. dose 8 mg/kg. The protocol: Chromatographic separation was performed using a UPLC system (Waters ACQUITY-CLASS. US) with an analytical column Kinetex (C18, 1.7 μm, 2.1 mm × 100 mm; Phenomenex; California; CA, USA) at 25 °C. Water and methanol (75:25) were used as the isocratic elution, running at a flow rate of 0.2 mL/min. The detector was used with fluorescence (FLR) detection with a fluorescence excitation wavelength of 330 nm and a fluorescence emission wavelength of 439 nm.
For the tissue concentration study of 10-dehydroxyl-12-demethoxy-conophylline, 18 (SD) rats (half male and female) were randomly divided into three groups. The rats were administered intravenously at a dose of 8 mg/kg of 10-dehydroxyl-12-demethoxy-conophylline, and the rats were euthanized at 5, 20, and 45 min after administration. Samples of their tissues and blood were carefully collected and washed with sodium phosphate buffer (pH 7.4) to remove blood. Each tissue (0.2 g) was homogenized in normal saline (1 mL). Subsequently, an amount 120 μL of the homogenate was pipetted into 480 μL of methanol and vortexed for 3 min, and then centrifuged at 14,000 rpm for 10 min. The supernatant was then centrifuged again at 14,000 rpm for 10 min and stored at −70 °C until analysis. The preparation process for analysis was the same as described above for plasma.

The subject of a further series is A-549. Further details: method as in PMID 29772302. Conditions: cited from earlier work.

“Also recorded” adds a separate entry of the source.

`CC[C@@]12CC(C(=O)OC)=C3Nc4cc5c(cc4[C@@]34CCN(C[C@H]3O[C@H]31)[C@@H]24)[C@@H]1C(O5)[C@@H](O)[C@@]2(CC)CC(C(=O)OC)=C3Nc4cc(OC)ccc4[C@@]34CCN1[C@@H]24` (stereo partly shown) [10-dehydroxyl-12-demethoxy-conophylline, 10-Dehydroxyl-12-demethoxy-conophylline]: the fraction unbound at 1 µg/mL in series [1] (1.00 µg/mL, equilibrium dialysis, read-out: protein binding degree (converted)) was 0.181. Moreover, the fraction unbound at 2.5 µg/mL in series [1] (2.50 µg/mL, equilibrium dialysis, read-out: protein binding degree (converted)) was 0.174. Besides, in series [1] (5.00 µg/mL, equilibrium dialysis, read-out: protein binding degree (converted)), the fraction unbound at 5 µg/mL is 0.188. The fraction unbound in series [1] (rat, three concentrations (1.00, 2.50 and 5.00 µg/mL), summary in abstract, read-out: protein binding degree) is under 0.2. The “concentration in the brain” value in series [2] is recorded as “kept to a small amount”. Further, the “tissue distribution at 5 min” value in series [2] (5 min) is “in the heart and kidney were markedly higher than in other tissues”. In series [2] (20 min (equilibrium time)), the “tissue distribution at 20 min” value is listed as “the drug concentration in the lung reached the highest at this time”. For the same compound, in series [2] (45 min (elimination period)), the “tissue distribution at 45 min” value is “mainly distributed in the liver and kidney tissues”. For the same compound, the “tissue distribution, tissues with highest levels” value in series [2] (overall, 8 mg/kg) is “detected in all examined tissues with the highest in kidney, liver, and lung; also recorded: the distribution in the kidney and lung is the highest”. The “inhibitory activity on A-549 tumor cell line” value in the series on A-549 is recorded as “significant inhibitory activity”.
